Results taken from patent publication US8765944B2, “Compounds for the treatment of hepatitis C” (priority 2010, dated 2014).
pEC50: −log10 of the molar value.

The compounds below were run on HCV pseudoparticles (assay: HCV pseudoparticle infection assay (luciferase reporter, Huh7 cells)). Details: Hepatitis C virus, genotype 1b, Huh-7, 48 h, HCV pseudoparticles (genotype 1b), luciferase activity 2 days after infection.
Assay type: cell-based, HCV (genotype 1b E1 and E2 envelope)

| Compound | pEC50 |
| --- | --- |
| O=C(CCCNC(=O)c1ccc(Nc2nc(NC3(c4ccc(Cl)cc4)CC3)nc(OCC(F)(F)F)n2)cc1)NCCC(=O)NS(=O)(=O)C1CCC1 [Example 2063] | 7.42 |
| CC(C)(CNC(=O)c1ccc(Nc2nc(NC3(c4ccc(Cl)cc4)CC3)nc(OCC(F)(F)F)n2)cc1)C(=O)NS(=O)(=O)C1CC1 [Example 2084] | 8.22 |

Same assay, conditions: Hepatitis C virus, genotype 1b, Huh-7, 48 h, HCV pseudoparticles (genotype 1b), luciferase activity 2 days after infection, class

| Compound | pEC50 |
| --- | --- |
| C[C@@H](NC(=O)CCCNC(=O)c1ccc(Nc2nc(NC3(c4ccc(Cl)cc4)CC3)nc(OCC(F)(F)F)n2)cc1)C(=O)NS(C)(=O)=O [Example 2051, (R)-4-(4-(1-(4-chlorophenyl)cyclopropylamino)-6-(2,2,2-trifluoroethoxy)-1,3,5-triazin-2-ylamino)-N-(4-(1-(methylsulfonamido)-1-oxopropan-2-ylamino)-4-oxobutyl)benzamide] | 7.00 to 9.30 |
| CC(C)S(=O)(=O)NC(=O)[C@@H](C)NC(=O)CCCNC(=O)c1ccc(Nc2nc(NC3(c4ccc(Cl)cc4)CC3)nc(OCC(F)(F)F)n2)cc1 [Example 2052] | 7.00 to 9.30 |
| C[C@@H](NC(=O)CCCNC(=O)c1ccc(Nc2nc(NC3(c4ccc(Cl)cc4)CC3)nc(OCC(F)(F)F)n2)cc1)C(=O)NS(=O)(=O)C1CC1 [Example 2053] | 7.00 to 9.30 |
| C[C@H](NC(=O)CCCNC(=O)c1ccc(Nc2nc(NC3(c4ccc(Cl)cc4)CC3)nc(OCC(F)(F)F)n2)cc1)C(=O)NS(C)(=O)=O [Example 2054] | 7.00 to 9.30 |
| CC(C)S(=O)(=O)NC(=O)[C@H](C)NC(=O)CCCNC(=O)c1ccc(Nc2nc(NC3(c4ccc(Cl)cc4)CC3)nc(OCC(F)(F)F)n2)cc1 [Example 2055] | 7.00 to 9.30 |
| C[C@H](NC(=O)CCCNC(=O)c1ccc(Nc2nc(NC3(c4ccc(Cl)cc4)CC3)nc(OCC(F)(F)F)n2)cc1)C(=O)NS(=O)(=O)N(C)C [Example 2056] | 7.00 to 9.30 |
| C[C@H](NC(=O)CCCNC(=O)c1ccc(Nc2nc(NC3(c4ccc(Cl)cc4)CC3)nc(OCC(F)(F)F)n2)cc1)C(=O)NS(=O)(=O)C1CC1 [Example 2057] | 7.00 to 9.30 |
| C[C@H](NC(=O)CCCNC(=O)c1ccc(Nc2nc(NC3(c4ccc(Cl)cc4)CC3)nc(OCC(F)(F)F)n2)cc1)C(=O)NS(=O)(=O)C1CCC1 [Example 2058] | 7.00 to 9.30 |
| CS(=O)(=O)NC(=O)CCNC(=O)CCCNC(=O)c1ccc(Nc2nc(NC3(c4ccc(Cl)cc4)CC3)nc(OCC(F)(F)F)n2)cc1 [Example 2059] | 7.00 to 9.30 |
| CN(C)S(=O)(=O)NC(=O)CCNC(=O)CCCNC(=O)c1ccc(Nc2nc(NC3(c4ccc(Cl)cc4)CC3)nc(OCC(F)(F)F)n2)cc1 [Example 2060] | 7.00 to 9.30 |
| CC(C)S(=O)(=O)NC(=O)CCNC(=O)CCCNC(=O)c1ccc(Nc2nc(NC3(c4ccc(Cl)cc4)CC3)nc(OCC(F)(F)F)n2)cc1 [Example 2061] | 7.00 to 9.30 |
| O=C(CCCNC(=O)c1ccc(Nc2nc(NC3(c4ccc(Cl)cc4)CC3)nc(OCC(F)(F)F)n2)cc1)NCCC(=O)NS(=O)(=O)C1CC1 [Example 2062] | 7.00 to 9.30 |
| O=C(CCCNC(=O)c1ccc(Nc2nc(NC3(c4ccc(Cl)cc4)CC3)nc(OCC(F)(F)F)n2)cc1)NCCC(=O)NS(=O)(=O)C1CCC1 [Example 2063] | 7.00 to 9.30 |
| O=C(CCCNC(=O)c1ccc(Nc2nc(NC3(c4ccc(Cl)cc4)CC3)nc(OCC(F)(F)F)n2)cc1)NCCC(=O)N[C@]1(C(=O)NS(=O)(=O)C2CC2)C[C@H]1C1CC1 [Example 2064] | 7.00 to 9.30 |
| C=C[C@@H]1C[C@]1(NC(=O)C1(CNC(=O)c2ccc(Nc3nc(NC4(c5ccc(Cl)cc5)CC4)nc(OCC(F)(F)F)n3)cc2)CC1)C(=O)NS(=O)(=O)C1CC1 [Example 2065] | 7.00 to 9.30 |
| O=C(NCC1(C(=O)N[C@]2(C(=O)NS(=O)(=O)C3CC3)C[C@H]2C2CC2)CC1)c1ccc(Nc2nc(NC3(c4ccc(Cl)cc4)CC3)nc(OCC(F)(F)F)n2)cc1 [Example 2066] | 7.00 to 9.30 |
| O=C(NCC1(C(=O)NC2(C(=O)NS(=O)(=O)C3CC3)CC2)CC1)c1ccc(Nc2nc(NC3(c4ccc(Cl)cc4)CC3)nc(OCC(F)(F)F)n2)cc1 [Example 2067] | 7.00 to 9.30 |
| C=C[C@@H]1C[C@]1(NC(=O)C1(CNC(=O)c2ccc(Nc3nc(NC4(c5ccc(Cl)cc5)CC4)nc(OCC(F)(F)F)n3)cc2)CC1)C(=O)NS(=O)(=O)C(C)(C)C [Example 2068] | 7.00 to 9.30 |
| C=C[C@@H]1C[C@]1(NC(=O)C1(CNC(=O)c2ccc(Nc3nc(NC4(c5ccc(Cl)cc5)CC4)nc(OCC(F)(F)F)n3)cc2)CC1)C(=O)NS(=O)(=O)C1CCC1 [Example 2069] | 7.00 to 9.30 |

| Compound | pEC50 |
| --- | --- |
| O=C(NCC1(C(=O)NS(=O)(=O)C2CC2)CC1)c1ccc(Nc2nc(NC3(c4ccc(Cl)cc4)CC3)nc(OCC(F)(F)F)n2)cc1 [Example 2070] | 7.00 to 9.30 |
| CS(=O)(=O)NC(=O)C1(CNC(=O)c2ccc(Nc3nc(NC4(c5ccc(Cl)cc5)CC4)nc(OCC(F)(F)F)n3)cc2)CC1 [Example 2071] | 7.00 to 9.30 |
| C=CS(=O)(=O)NC(=O)C1(CNC(=O)c2ccc(Nc3nc(NC4(c5ccc(Cl)cc5)CC4)nc(OCC(F)(F)F)n3)cc2)CC1 [Example 2072] | 7.00 to 9.30 |
| CCS(=O)(=O)NC(=O)C1(CNC(=O)c2ccc(Nc3nc(NC4(c5ccc(Cl)cc5)CC4)nc(OCC(F)(F)F)n3)cc2)CC1 [Example 2073] | 7.00 to 9.30 |
| CC(C)S(=O)(=O)NC(=O)C1(CNC(=O)c2ccc(Nc3nc(NC4(c5ccc(Cl)cc5)CC4)nc(OCC(F)(F)F)n3)cc2)CC1 [Example 2074] | 7.00 to 9.30 |
| CC(C)(C)S(=O)(=O)NC(=O)C1(CNC(=O)c2ccc(Nc3nc(NC4(c5ccc(Cl)cc5)CC4)nc(OCC(F)(F)F)n3)cc2)CC1 [Example 2075] | 7.00 to 9.30 |
| CCC1(S(=O)(=O)NC(=O)C2(CNC(=O)c3ccc(Nc4nc(NC5(c6ccc(Cl)cc6)CC5)nc(OCC(F)(F)F)n4)cc3)CC2)CC1 [Example 2076] | 7.00 to 9.30 |
| CCCC1(S(=O)(=O)NC(=O)C2(CNC(=O)c3ccc(Nc4nc(NC5(c6ccc(Cl)cc6)CC5)nc(OCC(F)(F)F)n4)cc3)CC2)CC1 [Example 2077] | 7.00 to 9.30 |
| CN(C)S(=O)(=O)NC(=O)C1(CNC(=O)c2ccc(Nc3nc(NC4(c5ccc(Cl)cc5)CC4)nc(OCC(F)(F)F)n3)cc2)CC1 [Example 2078] | 7.00 to 9.30 |
| CC(C)N(C(=O)C1(CNC(=O)c2ccc(Nc3nc(NC4(c5ccc(Cl)cc5)CC4)nc(OCC(F)(F)F)n3)cc2)CC1)S(N)(=O)=O [Example 2079] | 7.00 to 9.30 |
| C=C[C@@H]1C[C@]1(NC(=O)C(C)(C)CNC(=O)c1ccc(Nc2nc(NC3(c4ccc(Cl)cc4)CC3)nc(OCC(F)(F)F)n2)cc1)C(=O)NS(=O)(=O)C1CC1 [Example 2080] | 7.00 to 9.30 |
| CC(C)(CNC(=O)c1ccc(Nc2nc(NC3(c4ccc(Cl)cc4)CC3)nc(OCC(F)(F)F)n2)cc1)C(=O)N[C@]1(C(=O)NS(=O)(=O)C2CC2)C[C@H]1C1CC1 [Example 2081] | 7.00 to 9.30 |
| C=C[C@@H]1C[C@]1(NC(=O)C(C)(C)CNC(=O)c1ccc(Nc2nc(NC3(c4ccc(Cl)cc4)CC3)nc(OCC(F)(F)F)n2)cc1)C(=O)NS(=O)(=O)C(C)(C)C [Example 2082] | 7.00 to 9.30 |
| C=C[C@@H]1C[C@]1(NC(=O)C(C)(C)CNC(=O)c1ccc(Nc2nc(NC3(c4ccc(Cl)cc4)CC3)nc(OCC(F)(F)F)n2)cc1)C(=O)NS(=O)(=O)C1CCC1 [Example 2083] | 7.00 to 9.30 |
| CC(C)(CNC(=O)c1ccc(Nc2nc(NC3(c4ccc(Cl)cc4)CC3)nc(OCC(F)(F)F)n2)cc1)C(=O)NS(=O)(=O)C1CC1 [Example 2084] | 7.00 to 9.30 |
| CC(C)(CNC(=O)c1ccc(Nc2nc(NC3(c4ccc(Cl)cc4)CC3)nc(OCC(F)(F)F)n2)cc1)C(=O)NS(C)(=O)=O [Example 2085] | 7.00 to 9.30 |
| C=CS(=O)(=O)NC(=O)C(C)(C)CNC(=O)c1ccc(Nc2nc(NC3(c4ccc(Cl)cc4)CC3)nc(OCC(F)(F)F)n2)cc1 [Example 2086] | 7.00 to 9.30 |
| CCS(=O)(=O)NC(=O)C(C)(C)CNC(=O)c1ccc(Nc2nc(NC3(c4ccc(Cl)cc4)CC3)nc(OCC(F)(F)F)n2)cc1 [Example 2087] | 7.00 to 9.30 |
